Laboratory results as given in patent publication US20150105252A1, “SUBSTITUTED PYRAZOLES AS HERBICIDES” (E I DU PONT DE NEMOURS AND COMPANY, priority 2013, published 2015).

Experiments:
pigweed = assay: Test D preemergence; format: in vivo, Amaranthus retroflexus; details: Preemergence, scale 0 to 100
Source text: (§1) Seeds of plant species selected from bluegrass (annual bluegrass, Poa annua), blackgrass (Alopecurus myosuroides), canarygrass (littleseed canarygrass, Phalaris minor), chickweed (common chickweed, Stellaria media), galium (catchweed bedstraw, Galium aparine), bromegrass, downy (downy bromegrass, Bromus tectorum), field poppy (Papaver rhoeas), field violet (Viola arvensis), foxtail, green (green foxtail, Setaria viridis), deadnettle (henbit deadnettle, Lamium amplexicaule), ryegrass, Italian (Italian ryegrass, Lolium multiflorum), kochia (Kochia scoparia), lambsquarters (Chenopodium album), oilseed rape (Brassica napus), pigweed (redroot pigweed, Amaranthus retroflexus), chamomile (scentless chamomile, Matricaria inodora), speedwell (bird's-eye speedwell, Veronica persica), barley, spring (spring barley, Hordeum vulgare), wheat, spring (spring wheat, Triticum aestivum), buckwheat, wild (wild buckwheat, Polygonum convolvulus), mustard, wild (wild mustard, Sinapis arvensis), oat, wild (wild oat, Avena fatua), radish, wild (wild radish, Raphanus raphanistrum), windgrass (Apera spica-venti), Russian thistle (Salsola kali), barley, winter (winter barley, Hordeum vulgare), and wheat, winter (winter wheat, Triticum aestivum) were planted into a silt loam soil and treated preemergence with test chemicals formulated in a non-phytotoxic solvent mixture which included a surfactant.
(§2) At the same time, these species were planted in pots containing Redi-Earth® planting medium (Scotts Company, 14111 Scottslawn Road, Marysville, Ohio 43041) comprising spaghnum peat moss, vermiculite, wetting agent and starter nutrients and treated with postemergence applications of the test chemicals formulated in the same manner. Plants ranged in height from 2 to 18 cm (1- to 4-leaf stage). Treated plants and controls were maintained in a controlled growth environment for 14 to 21 days after which time all species were compared to controls and visually evaluated. Plant response ratings, summarized in Table D, are based on a scale of 0 to 100 where 0 is no effect and 100 is complete control. A dash (-) response means no test result.

mustard, wild = assay: Test D preemergence; format: in vivo, Sinapis arvensis; details: Preemergence, scale 0 to 100
Source text: as §1, §2

ryegrass, Italian = assay: Test D postemergence; format: in vivo, Lolium multiflorum; details: scale 0 to 100
Source text: as §1, §2

wheat, spring = assay: Test D postemergence; format: in vivo, Triticum aestivum; details: scale 0 to 100
Source text: as §1, §2

wheat, winter = assay: Test D postemergence; format: in vivo, Triticum aestivum; details: scale 0 to 100
Source text: as §1, §2

radish, wild [1] = assay: Test D preemergence; format: in vivo, Raphanus raphanistrum; details: for Plant response rating, Radish, Wild: Preemergence, scale 0 to 100
Source text: as §1, §2

foxtail, green [2] = assay: Test D preemergence; format: in vivo, Setaria viridis; details: for Plant response rating, Foxtail, Green: Preemergence, scale 0 to 100
Source text: as §1, §2

galium = assay: Test D postemergence; format: in vivo, Galium aparine; details: scale 0 to 100
Source text: as §1, §2

chickweed = assay: Test D postemergence; format: in vivo, Stellaria media; details: scale 0 to 100
Source text: as §1, §2

foxtail, green [3] = assay: Test D postemergence; format: in vivo, Setaria viridis; details: scale 0 to 100
Source text: as §1, §2

field violet = assay: Test D postemergence; format: in vivo, Viola arvensis; details: scale 0 to 100
Source text: as §1, §2

blackgrass = assay: Test D preemergence; format: in vivo, Alopecurus myosuroides; details: for Plant response rating, Blackgrass: Preemergence, scale 0 to 100
Source text: as §1, §2

canarygrass = assay: Test D preemergence; format: in vivo, Phalaris minor; details: for Plant response rating, Canarygrass: Preemergence, scale 0 to 100
Source text: as §1, §2

windgrass = assay: Test D postemergence; format: in vivo, Apera spica-venti; details: scale 0 to 100
Source text: as §1, §2

deadnettle = assay: Test D preemergence; format: in vivo, Lamium amplexicaule; details: for Plant response rating, Deadnettle: Preemergence, scale 0 to 100
Source text: as §1, §2

radish, wild [4] = assay: Test D postemergence; format: in vivo, Raphanus raphanistrum; details: scale 0 to 100
Source text: as §1, §2

oat, wild = assay: Test D preemergence; format: in vivo, Avena fatua; details: for Plant response rating, Oat, Wild: Preemergence, scale 0 to 100
Source text: as §1, §2

barley, spring = assay: Test D preemergence; format: in vivo, Hordeum vulgare; details: for Plant response rating, Barley, Spring: Preemergence, scale 0 to 100
Source text: as §1, §2

barley, winter = assay: Test D preemergence; format: in vivo, Hordeum vulgare; details: for Plant response rating, Barley, Winter: Preemergence, scale 0 to 100
Source text: as §1, §2

[5] = 16 g ai/ha, taken as preemergence

Structure (SMILES): CCc1cc(C(=O)NOC(C)C)nn1Cc1cccc(OC(F)(F)F)c1 [Compound 70]
- Plant response rating, Pigweed (pigweed; 62 g ai/ha): 0
- Plant response rating, Pigweed (pigweed; 250 g ai/ha): 75
- Plant response rating, Mustard, Wild (mustard, wild; 31 g ai/ha): 0
- Plant response rating, Mustard, Wild (mustard, wild; 62 g ai/ha): 100
- Plant response rating, Mustard, Wild (mustard, wild; 125 g ai/ha): 100
- Plant response rating, Mustard, Wild (mustard, wild; 250 g ai/ha): 100
- Plant response rating, Ryegrass, Italian (ryegrass, Italian; Postemergence, 16 g ai/ha): 0
- Ryegrass, Italian plant response rating (ryegrass, Italian; Postemergence, 31 g ai/ha): 0
- Ryegrass, Italian plant response rating (ryegrass, Italian; Postemergence, 125 g ai/ha): 10
- Ryegrass, Italian plant response rating (ryegrass, Italian; Postemergence, 250 g ai/ha): 15
- Ryegrass, Italian plant response rating (ryegrass, Italian; postemergence, 62 g ai/ha): 0
- Plant response rating, Wheat, Spring (wheat, spring; Postemergence, 16 g ai/ha): 0
- Wheat, Spring plant response rating (wheat, spring; Postemergence, 31 g ai/ha): 5
- Wheat, Spring plant response rating (wheat, spring; Postemergence, 125 g ai/ha): 5
- Wheat, Spring plant response rating (wheat, spring; Postemergence, 250 g ai/ha): 10
- Wheat, Spring plant response rating (wheat, spring; postemergence, 62 g ai/ha): 5
- Plant response rating, Wheat, Winter (wheat, winter; Postemergence, 16 g ai/ha): 0
- Wheat, Winter plant response rating (wheat, winter; Postemergence, 31 g ai/ha): 0
- Wheat, Winter plant response rating (wheat, winter; Postemergence, 125 g ai/ha): 5
- Wheat, Winter plant response rating (wheat, winter; Postemergence, 250 g ai/ha): 10
- Wheat, Winter plant response rating (wheat, winter; postemergence, 62 g ai/ha): 5
- Plant response rating (scale 0 to 100), Radish, Wild (radish, wild [1]; [5]): 0
- Plant response rating, Radish, Wild (radish, wild [1]; 31 g ai/ha): 0
- Plant response rating, Radish, Wild (radish, wild [1]; 62 g ai/ha): 0
- Plant response rating, Radish, Wild (radish, wild [1]; 125 g ai/ha): 100
- Plant response rating, Radish, Wild (radish, wild [1]; 250 g ai/ha): 100
- Plant response rating (scale 0 to 100), Foxtail, Green (foxtail, green [2]; [5]): 0
- Plant response rating, Foxtail, Green (foxtail, green [2]; 31 g ai/ha): 0
- Plant response rating, Foxtail, Green (foxtail, green [2]; 62 g ai/ha): 0
- Plant response rating, Foxtail, Green (foxtail, green [2]; 125 g ai/ha): 20
- Plant response rating, Foxtail, Green (foxtail, green [2]; 250 g ai/ha): 100
- Plant response rating, Galium (galium; Postemergence, 16 g ai/ha): 50
- Galium plant response rating (galium; Postemergence, 31 g ai/ha): 60
- Galium plant response rating (galium; Postemergence, 125 g ai/ha): 75
- Galium plant response rating (galium; Postemergence, 250 g ai/ha): 80
- Galium plant response rating (galium; postemergence, 62 g ai/ha): 70
- Plant response rating, Chickweed (chickweed; Postemergence, 16 g ai/ha): 30
- Chickweed plant response rating (chickweed; Postemergence, 31 g ai/ha): 30
- Chickweed plant response rating (chickweed; Postemergence, 125 g ai/ha): 70
- Chickweed plant response rating (chickweed; Postemergence, 250 g ai/ha): 85
- Chickweed plant response rating (chickweed; postemergence, 62 g ai/ha): 70
- Plant response rating, Foxtail, Green (foxtail, green [3]; Postemergence, 16 g ai/ha): 0
- Foxtail, Green plant response rating (foxtail, green [3]; Postemergence, 31 g ai/ha): 15
- Foxtail, Green plant response rating (foxtail, green [3]; Postemergence, 125 g ai/ha): 30
- Foxtail, Green plant response rating (foxtail, green [3]; Postemergence, 250 g ai/ha): 60
- Foxtail, Green plant response rating (foxtail, green [3]; postemergence, 62 g ai/ha): 0
- Plant response rating, Field Violet (field violet; Postemergence, 16 g ai/ha): 20
- Field Violet plant response rating (field violet; Postemergence, 31 g ai/ha): 40
- Field Violet plant response rating (field violet; Postemergence, 125 g ai/ha): 75
- Field Violet plant response rating (field violet; Postemergence, 250 g ai/ha): 75
- Field Violet plant response rating (field violet; postemergence, 62 g ai/ha): 40
- Plant response rating (scale 0 to 100), Blackgrass (blackgrass; [5]): 0
- Plant response rating, Blackgrass (blackgrass; 31 g ai/ha): 0
- Plant response rating, Blackgrass (blackgrass; 62 g ai/ha): 5
- Plant response rating, Blackgrass (blackgrass; 125 g ai/ha): 10
- Plant response rating, Blackgrass (blackgrass; 250 g ai/ha): 30
- Plant response rating (scale 0 to 100), Canarygrass (canarygrass; [5]): 0
- Plant response rating, Canarygrass (canarygrass; 31 g ai/ha): 0
- Plant response rating, Canarygrass (canarygrass; 62 g ai/ha): 0
- Plant response rating, Canarygrass (canarygrass; 125 g ai/ha): 20
- Plant response rating, Canarygrass (canarygrass; 250 g ai/ha): 75
- Plant response rating, Windgrass (windgrass; Postemergence, 16 g ai/ha): 0
- Windgrass plant response rating (windgrass; Postemergence, 31 g ai/ha): 0
- Windgrass plant response rating (windgrass; Postemergence, 125 g ai/ha): 0
- Windgrass plant response rating (windgrass; Postemergence, 250 g ai/ha): 0
- Windgrass plant response rating (windgrass; postemergence, 62 g ai/ha): 0
- Plant response rating (scale 0 to 100), Deadnettle (deadnettle; [5]): 0
- Plant response rating, Deadnettle (deadnettle; 31 g ai/ha): 25
- Plant response rating, Deadnettle (deadnettle; 62 g ai/ha): 30
- Plant response rating, Deadnettle (deadnettle; 125 g ai/ha): 50
- Plant response rating, Deadnettle (deadnettle; 250 g ai/ha): 100
- Plant response rating, Radish, Wild (radish, wild [4]; Postemergence, 16 g ai/ha): 10
- Radish, Wild plant response rating (radish, wild [4]; Postemergence, 31 g ai/ha): 10
- Radish, Wild plant response rating (radish, wild [4]; Postemergence, 125 g ai/ha): 50
- Radish, Wild plant response rating (radish, wild [4]; Postemergence, 250 g ai/ha): 85
- Radish, Wild plant response rating (radish, wild [4]; postemergence, 62 g ai/ha): 10
- Plant response rating (scale 0 to 100), Oat, Wild (oat, wild; [5]): 0
- Plant response rating, Oat, Wild (oat, wild; 31 g ai/ha): 0
- Plant response rating, Oat, Wild (oat, wild; 62 g ai/ha): 0
- Plant response rating, Oat, Wild (oat, wild; 125 g ai/ha): 5
- Plant response rating, Oat, Wild (oat, wild; 250 g ai/ha): 30
- Plant response rating (scale 0 to 100), Barley, Spring (barley, spring; 16 g ai/ha, taken as preemergence, 0 = no effect, 100 = complete control): 0
- Plant response rating, Barley, Spring (barley, spring; 31 g ai/ha): 0
- Plant response rating, Barley, Spring (barley, spring; 62 g ai/ha): 0
- Plant response rating, Barley, Spring (barley, spring; 125 g ai/ha): 0
- Plant response rating, Barley, Spring (barley, spring; 250 g ai/ha): 15
- Plant response rating (scale 0 to 100), Barley, Winter (barley, winter; [5]): 0
- Plant response rating, Barley, Winter (barley, winter; 31 g ai/ha): 0
- Plant response rating, Barley, Winter (barley, winter; 62 g ai/ha): 0
- Plant response rating, Barley, Winter (barley, winter; 125 g ai/ha): 0
- Plant response rating, Barley, Winter (barley, winter; 250 g ai/ha): 10
